Measured values published in patent US20080161395A1, “Derivatives of Aminobutanoic Acid Inhibiting Cpt” (SIGMA-TAU INDUSTRIE FARMACEUTICHE RIUNITE S.P.A., priority 2005, published 2008).

Columns and labels:
CPT1 liver = molecular target: T1, CPT1 liver (Rattus norvegicus, UniProt P32198); experiment: Inhibition of CPT in fresh rat liver mitochondrial preparations; type: biochemical, Fischer rats; conditions: rat liver mitochondria, 50 μM [14C]palmitoyl-CoA, 10 mM L-carnitine, 37° C., 1 minute
T1 construct: fresh mitochondrial preparations obtained from the liver or heart of Fischer rats; from tissue; host or cells: liver mitochondria of Fischer rats
T1 sequence (P32198 1-773): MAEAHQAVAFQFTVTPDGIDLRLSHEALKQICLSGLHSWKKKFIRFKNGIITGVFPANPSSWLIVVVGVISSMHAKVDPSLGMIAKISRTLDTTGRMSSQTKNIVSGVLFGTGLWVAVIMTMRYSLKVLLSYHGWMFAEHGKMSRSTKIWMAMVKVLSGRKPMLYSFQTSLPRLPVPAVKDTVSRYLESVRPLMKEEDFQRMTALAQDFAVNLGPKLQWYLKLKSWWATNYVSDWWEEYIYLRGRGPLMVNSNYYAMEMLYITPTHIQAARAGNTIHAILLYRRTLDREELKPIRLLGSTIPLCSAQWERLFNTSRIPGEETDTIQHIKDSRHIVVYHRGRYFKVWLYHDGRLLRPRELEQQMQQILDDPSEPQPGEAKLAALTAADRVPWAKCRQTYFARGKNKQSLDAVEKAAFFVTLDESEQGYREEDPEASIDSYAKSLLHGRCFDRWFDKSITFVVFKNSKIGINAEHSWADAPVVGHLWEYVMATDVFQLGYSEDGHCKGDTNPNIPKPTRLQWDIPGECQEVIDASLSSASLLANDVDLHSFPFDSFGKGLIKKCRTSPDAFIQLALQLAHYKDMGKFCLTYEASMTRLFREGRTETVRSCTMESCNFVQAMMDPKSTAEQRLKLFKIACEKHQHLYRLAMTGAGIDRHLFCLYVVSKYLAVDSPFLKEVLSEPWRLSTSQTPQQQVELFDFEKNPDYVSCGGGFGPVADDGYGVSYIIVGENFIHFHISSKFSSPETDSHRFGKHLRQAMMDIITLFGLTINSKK
Method: 100 μl of a mitochondrial suspension, containing 50 μM of [^14C] palmitoyl-CoA (spec.act. 10000 dpm/mole) and 10 mM of L-carnitine, are incubated at 37° C. in the presence of stepped concentrations (0-3 mM) of product under examination.
(§1) The IC50 is then determined.

CPT1 heart = molecular target: T2, CPT1 heart (Rattus norvegicus, UniProt Q63704); experiment: Inhibition of CPT in fresh rat heart mitochondrial preparations; type: biochemical, Fischer rats; conditions: rat heart mitochondria, 50 μM [14C]palmitoyl-CoA, 10 mM L-carnitine, 37° C., 1 minute
T2 construct: fresh mitochondrial preparations obtained from the liver or heart of Fischer rats; from tissue; host or cells: heart mitochondria of Fischer rats
T2 sequence (Q63704 1-772): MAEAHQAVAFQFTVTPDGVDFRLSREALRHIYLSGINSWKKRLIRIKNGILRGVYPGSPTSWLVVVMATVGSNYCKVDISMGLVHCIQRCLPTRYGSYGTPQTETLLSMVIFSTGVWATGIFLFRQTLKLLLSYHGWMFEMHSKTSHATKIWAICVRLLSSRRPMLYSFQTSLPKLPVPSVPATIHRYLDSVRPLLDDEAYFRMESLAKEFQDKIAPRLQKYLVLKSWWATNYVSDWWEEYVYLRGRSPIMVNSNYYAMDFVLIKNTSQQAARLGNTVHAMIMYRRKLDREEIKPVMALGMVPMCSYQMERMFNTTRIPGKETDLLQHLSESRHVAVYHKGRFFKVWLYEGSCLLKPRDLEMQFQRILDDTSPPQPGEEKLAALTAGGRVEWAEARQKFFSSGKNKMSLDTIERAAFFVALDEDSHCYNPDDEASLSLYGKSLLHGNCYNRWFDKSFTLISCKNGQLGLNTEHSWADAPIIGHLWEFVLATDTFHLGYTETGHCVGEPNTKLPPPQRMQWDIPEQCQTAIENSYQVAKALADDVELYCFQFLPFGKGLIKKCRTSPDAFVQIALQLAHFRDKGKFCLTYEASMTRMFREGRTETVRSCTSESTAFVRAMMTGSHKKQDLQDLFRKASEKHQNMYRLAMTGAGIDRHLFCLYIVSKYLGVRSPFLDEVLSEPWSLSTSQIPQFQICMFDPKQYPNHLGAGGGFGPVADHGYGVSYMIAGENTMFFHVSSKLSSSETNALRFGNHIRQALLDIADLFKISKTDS
Method: The inhibition of CPT was evaluated on fresh mitochondrial preparations obtained from the liver or heart of Fischer rats, fed normally; the mitochondria taken from the liver or heart are suspended in a 75 mM sucrose buffer, EGTA 1 mM, pH 7.5. 100 μl of a mitochondrial suspension, containing 50 μM of [^14C] palmitoyl-CoA (spec.act. 10000 dpm/mole) and 10 mM of L-carnitine, are incubated at 37° C. in the presence of stepped concentrations (0-3 mM) of product under examination.
as §1

[1] = test system: CPT-1 in the hypothalamus; conditions: intracerebroventricular (icv) administration; Nature Medicine, 2003, 9(6), 756-761; cited from earlier work

Structure (SMILES) | IC50 (CPT1 liver) [µM] | IC50 (CPT1 heart) [µM] | food intake and gluconeogenesis [1]
CCCCCCCCCCCCCCNC(=O)N[C@H](CC(=O)[O-])C[N+](C)(C)C [ST1326, R-4-trimethyl ammonium-3-(tetradecylcarbamoyl)-aminobutyrate] | 0.36 | 48.8 | significantly and consistently reducing
CCCCCCCCCCCCCCNC(=O)N[C@H](CC(=O)O)CN(C)C [ST2837, (R)-4-(dimethylamino)-3-(tetradecylcarbamoyl)-amino-butyric Acid] | 5.7 | 70 | 
